# Data from the supplement of paper PMC10307832.
# Legend:
# Assay in all cases: relative viability (nuclei count vs DMSO), 5 days (fraction); higher = more cells survive
# A-427 = test system: A-427
# How it was run: (§1)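 Nuclei were stained with Hoechst during a one-step fixation (final 0.05% Triton X-100, 1% formaldehyde, 1 ug/ml Hoechst) carried out 5 days after dosing, then counted on 4× images. The cells, lung cancer lines in 1536-well plates, had been dosed by pin tool the day after seeding with one drug alone or a fixed anchor-drug dose plus five library-drug doses (not always all listed) in √10 steps. Relative viability is the nuclei count in treated wells divided by that in vehicle wells, and each value is the median of duplicate plates.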
# BEN = test system: BEN
# How it was run: as §1
# COR-L23 = test system: COR-L23
# How it was run: as §1
# EKVX = test system: EKVX
# How it was run: as §1
# HARA = test system: HARA
# How it was run: as §1
# LC-2-ad = test system: LC-2-ad
# How it was run: as §1
# LCLC-103H = test system: LCLC-103H
# How it was run: as §1
# LOU-NH91 = test system: LOU-NH91
# How it was run: as §1
# LU99A = test system: LU99A
# How it was run: as §1
# NCI-H1650 = test system: NCI-H1650
# How it was run: as §1
# NCI-H1666 = test system: NCI-H1666
# How it was run: as §1
# NCI-H1793 = test system: NCI-H1793
# How it was run: as §1
# NCI-H1915 = test system: NCI-H1915
# How it was run: as §1
# NCI-H1944 = test system: NCI-H1944
# How it was run: as §1
# NCI-H2087 = test system: NCI-H2087
# How it was run: as §1
# NCI-H2170 = test system: NCI-H2170
# How it was run: as §1
# NCI-H2228 = test system: NCI-H2228
# How it was run: as §1
# NCI-H3122 = test system: NCI-H3122
# How it was run: as §1
# NCI-H322M = test system: NCI-H322M
# How it was run: as §1
# NCI-H520 = test system: NCI-H520
# How it was run: as §1
# NCI-H727 = test system: NCI-H727
# How it was run: as §1
# PC-14 = test system: PC-14
# How it was run: as §1
# PC-3 [JPC-3] = test system: PC-3 [JPC-3]
# How it was run: as §1
# SK-LU-1 = test system: SK-LU-1
# How it was run: as §1
compound,measurement,setting,value
Oc1nc(-c2ccc(C(F)(F)F)cc2)nc2c1CSCC2 [XAV939] + O=C(CCCCCCC(=O)Nc1ccccc1)NO [Vorinostat] (partner 1 µM),relative viability,A-427; first compound 0.08 µM,0.804
same,relative viability,A-427; first compound 0.253 µM,0.869
same,relative viability,A-427; first compound 0.8 µM,0.895
same,relative viability,A-427; first compound 2.53 µM,0.745
same,relative viability,BEN; first compound 0.08 µM,0.556
same,relative viability,BEN; first compound 0.253 µM,0.587
same,relative viability,BEN; first compound 0.8 µM,0.514
same,relative viability,BEN; first compound 2.53 µM,0.418
same,relative viability,COR-L23; first compound 0.08 µM,0.443
same,relative viability,COR-L23; first compound 0.253 µM,0.472
same,relative viability,COR-L23; first compound 0.8 µM,0.483
same,relative viability,COR-L23; first compound 2.53 µM,0.39
same,relative viability,EKVX; first compound 0.08 µM,0.816
same,relative viability,EKVX; first compound 0.8 µM,0.678
same,relative viability,EKVX; first compound 2.53 µM,0.423
same,relative viability,HARA; first compound 0.08 µM,0.529
same,relative viability,HARA; first compound 0.253 µM,0.511
same,relative viability,HARA; first compound 0.8 µM,0.648
same,relative viability,HARA; first compound 2.53 µM,0.535
same,relative viability,LC-2-ad; first compound 0.08 µM,0.735
same,relative viability,LC-2-ad; first compound 0.253 µM,0.689
same,relative viability,LC-2-ad; first compound 0.8 µM,0.705
same,relative viability,LC-2-ad; first compound 2.53 µM,0.567
same,relative viability,LCLC-103H; first compound 0.08 µM,0.874
same,relative viability,LCLC-103H; first compound 0.253 µM,0.698
same,relative viability,LCLC-103H; first compound 0.8 µM,0.805
same,relative viability,LCLC-103H; first compound 2.53 µM,0.618
same,relative viability,LOU-NH91; first compound 0.08 µM,0.952
same,relative viability,LOU-NH91; first compound 0.253 µM,0.813
same,relative viability,LOU-NH91; first compound 0.8 µM,0.88
same,relative viability,LOU-NH91; first compound 2.53 µM,0.937
same,relative viability,LU99A; first compound 0.08 µM,0.454
same,relative viability,LU99A; first compound 0.253 µM,0.598
same,relative viability,LU99A; first compound 0.8 µM,0.507
same,relative viability,LU99A; first compound 2.53 µM,0.43
same,relative viability,NCI-H1650; first compound 0.08 µM,0.909
same,relative viability,NCI-H1650; first compound 0.253 µM,0.524
same,relative viability,NCI-H1650; first compound 0.8 µM,0.391
same,relative viability,NCI-H1650; first compound 2.53 µM,0.525
same,relative viability,NCI-H1666; first compound 0.08 µM,0.978
same,relative viability,NCI-H1666; first compound 0.253 µM,0.889
same,relative viability,NCI-H1666; first compound 0.8 µM,0.906
same,relative viability,NCI-H1666; first compound 2.53 µM,1.15
same,relative viability,NCI-H1793; first compound 0.08 µM,0.952
same,relative viability,NCI-H1793; first compound 0.253 µM,0.573
same,relative viability,NCI-H1793; first compound 0.8 µM,0.937
same,relative viability,NCI-H1793; first compound 2.53 µM,0.733
same,relative viability,NCI-H1915; first compound 0.08 µM,0.603
same,relative viability,NCI-H1915; first compound 0.253 µM,0.51
same,relative viability,NCI-H1915; first compound 0.8 µM,0.5
same,relative viability,NCI-H1915; first compound 2.53 µM,0.498
same,relative viability,NCI-H1944; first compound 0.08 µM,0.55
same,relative viability,NCI-H1944; first compound 0.253 µM,0.625
same,relative viability,NCI-H1944; first compound 0.8 µM,0.508
same,relative viability,NCI-H1944; first compound 2.53 µM,0.354
same,relative viability,NCI-H2087; first compound 0.08 µM,0.978
same,relative viability,NCI-H2087; first compound 0.253 µM,0.561
same,relative viability,NCI-H2087; first compound 0.8 µM,0.654
same,relative viability,NCI-H2087; first compound 2.53 µM,0.594
same,relative viability,NCI-H2170; first compound 0.08 µM,0.86
same,relative viability,NCI-H2170; first compound 0.253 µM,0.614
same,relative viability,NCI-H2170; first compound 0.8 µM,0.739
same,relative viability,NCI-H2170; first compound 2.53 µM,0.543
same,relative viability,NCI-H2228; first compound 0.08 µM,0.639
same,relative viability,NCI-H2228; first compound 0.253 µM,0.589
same,relative viability,NCI-H2228; first compound 0.8 µM,0.775
same,relative viability,NCI-H2228; first compound 2.53 µM,0.597
same,relative viability,NCI-H3122; first compound 0.08 µM,1.03
same,relative viability,NCI-H3122; first compound 0.253 µM,0.401
same,relative viability,NCI-H3122; first compound 0.8 µM,0.904
same,relative viability,NCI-H3122; first compound 2.53 µM,0.997
same,relative viability,NCI-H322M; first compound 0.08 µM,1.1
same,relative viability,NCI-H322M; first compound 0.253 µM,0.805
same,relative viability,NCI-H322M; first compound 0.8 µM,0.826
same,relative viability,NCI-H322M; first compound 2.53 µM,0.622
same,relative viability,NCI-H520; first compound 0.08 µM,0.722
same,relative viability,NCI-H520; first compound 0.8 µM,0.747
same,relative viability,NCI-H520; first compound 2.53 µM,0.717
same,relative viability,NCI-H727; first compound 0.08 µM,1.25
same,relative viability,NCI-H727; first compound 0.8 µM,1
same,relative viability,NCI-H727; first compound 2.53 µM,1.02
same,relative viability,PC-14; first compound 0.08 µM,0.96
same,relative viability,PC-14; first compound 0.253 µM,0.622
same,relative viability,PC-14; first compound 0.8 µM,0.789
same,relative viability,PC-14; first compound 2.53 µM,0.598
same,relative viability,PC-3 [JPC-3]; first compound 0.253 µM,0.76
same,relative viability,PC-3 [JPC-3]; first compound 0.8 µM,0.769
same,relative viability,PC-3 [JPC-3]; first compound 2.53 µM,0.816
same,relative viability,SK-LU-1; first compound 0.08 µM,0.872
same,relative viability,SK-LU-1; first compound 0.253 µM,0.755
same,relative viability,SK-LU-1; first compound 0.8 µM,0.892
same,relative viability,SK-LU-1; first compound 2.53 µM,0.87
